Results from patent US8501483B2, “Method of assessing cancer status in a breast cancer patient” (University College Dublin, National University of Ireland, …, priority 2008, dated 2013).

Tests used:
[1] = system: HOX-C11; assay: Immunocytochemistry of HOX-C11 in tamoxifen-resistant cells; format: cell-based
Excerpt: (§1) Increased interactions between HOX-C11 and SRC-1 were found in endocrine resistant versus endocrine sensitive breast cancer. Furthermore these interactions were enhanced in the presence of endocrine modulators, tamoxifen and faslodex (FIG. 1). In primary breast cancer tissue HOX-C11 and SRC-1 were co-localised to the nucleus and perinuclear region of the tumour epithelial cells (FIG. 2). A greater interaction occurred in tamoxifen-resistant LY2 cells, compared with the parent MCF-7 sensitive cell line. HOX genes play a central role in ductal formation and lobulo-aleolar development by regulating epithelial proliferation and differentiation in the developing breast and have been implicated in steroid/growth-factor pathway crosstalk. […] S100β has been identified as a possible target gene of the HOX-C11 transcription factor. Several HOX responsive elements have been identified in the promoter of S100β and forced expression of HOX-C11 in neuronal cells induces expression of S100β. This family of calcium binding protein is secreted and has previously been associated with poor outcome and reduced disease-free survival in melanoma. Experimental data provides evidence for a functional interaction between SRC-1 and HOX-C11. Knockdown of SRC-1 using siRNA abrogated the HOX-C11 associated induction of S100β (FIG. 4B). […]

[2] = system: interactions between SRC-1 and HOX-C11; assay: Immunoprecipitation of SRC-1 and subsequent immunoblot for HOX-C11 in endocrine resistant LY2 cells; format: cell-based; conditions: endocrine resistant breast cancer LY2 cells, 10^−8 M, FIG. 1
Procedure: FIG. 1: Confirmation of differential interactions between SRC-1 and HOX-C11 in endocrine resistant breast cancer LY2 cells in the presence of tamoxifen (4-OHT) and faslodex (ICI) (10^−8 M) was performed by immunoprecipitation of SRC-1 and subsequent immunoblot for HOX-C11.
as §1, with “S100β.” for “S100β. This family of calcium binding protein is secreted and has previously been associated with poor outcome and reduced disease-free survival in melanoma. Experimental data provides evidence for a functional interaction between SRC-1 and HOX-C11. Knockdown of SRC-1 using siRNA abrogated the HOX-C11 associated induction of S100β (FIG. 4B).”

Row | Structure (SMILES) | HOX-C11 localisation when cells were treated [1] | interactions between HOX-C11 and SRC-1 [2]
1 | C[C@]12CC[C@@H]3c4ccc(O)cc4C[C@@H](CCCCCCCCC[S+]([O-])CCCC(F)(F)C(F)(F)F)[C@H]3[C@@H]1CC[C@@H]2O (stereo partly shown) [faslodex] | translocate to the nucleus and peri-nuclear region | enhanced
2 | CC/C(=C(\c1ccccc1)c1ccc(OCCN(C)C)cc1)c1ccccc1 [tamoxifen] | translocate to the nucleus and peri-nuclear region | enhanced
